Experimental data: ChEMBL document CHEMBL1201862, “PubChem BioAssay data set” (2004)
Activity calls are given as the source filed them.

Columns and labels:
[1] = biological target: Beta Lactamase (Pseudomonas aeruginosa, UniProt Q932Y6); assay: beta-lactamase reporter inhibitor potency, dose response, artefact control for TLR9-MyD88 binding inhibitor project, BLA reporter cells, FRET fluorescence (AID 588341); assay type: cell-based;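 further: cell based assay in CHO-K1 cells stably expressing beta-lactamase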
Beta Lactamase, sequence (Q932Y6 whole entry): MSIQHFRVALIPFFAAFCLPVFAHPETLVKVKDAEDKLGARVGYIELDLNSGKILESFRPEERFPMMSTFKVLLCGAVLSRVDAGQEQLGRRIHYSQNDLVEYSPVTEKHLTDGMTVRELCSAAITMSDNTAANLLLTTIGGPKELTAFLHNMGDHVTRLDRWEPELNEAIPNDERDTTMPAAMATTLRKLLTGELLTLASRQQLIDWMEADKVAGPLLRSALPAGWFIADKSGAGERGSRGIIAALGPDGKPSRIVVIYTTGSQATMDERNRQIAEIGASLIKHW

[2] = THP-1 cell cytotoxicity, dose response, cytotoxicity control for Vif-APOBEC3G degradation inhibitor project, THP-1 cells (AID 1117359); assay type: functional; conditions: Human immunodeficiency virus 1, THP-1
[3] = biological target: T1, Protein Tat (Human immunodeficiency virus type 1 group M subtype B (isolate HXB2)(HIV-1), UniProt P04608); assay type: functional;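 further: tat binding to TAR RNA read out by fluorescence polarization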
T1 sequence (P04608 whole entry): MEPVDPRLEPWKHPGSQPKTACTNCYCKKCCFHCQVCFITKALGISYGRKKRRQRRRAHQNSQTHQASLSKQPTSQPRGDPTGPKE

[4] = tested on: CHO; assay: cytotoxicity in TLR9-MyD88 CHO cells, dose response, cytotoxicity control for TLR9-MyD88 binding inhibitor project, cell-based, luminescence (AID 588339); assay type: functional, hamster; conditions: Cricetulus griseus;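 further: CHO cells stably coexpressing TLR9 and MyD88 fusions from primary screen; compound exposure lasted 48 hours before viability readout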
[5] = biological target: T2, Sentrin-specific protease 6 (Homo sapiens, UniProt Q9GZR1); assay type: functional
T2 sequence (Q9GZR1 whole entry): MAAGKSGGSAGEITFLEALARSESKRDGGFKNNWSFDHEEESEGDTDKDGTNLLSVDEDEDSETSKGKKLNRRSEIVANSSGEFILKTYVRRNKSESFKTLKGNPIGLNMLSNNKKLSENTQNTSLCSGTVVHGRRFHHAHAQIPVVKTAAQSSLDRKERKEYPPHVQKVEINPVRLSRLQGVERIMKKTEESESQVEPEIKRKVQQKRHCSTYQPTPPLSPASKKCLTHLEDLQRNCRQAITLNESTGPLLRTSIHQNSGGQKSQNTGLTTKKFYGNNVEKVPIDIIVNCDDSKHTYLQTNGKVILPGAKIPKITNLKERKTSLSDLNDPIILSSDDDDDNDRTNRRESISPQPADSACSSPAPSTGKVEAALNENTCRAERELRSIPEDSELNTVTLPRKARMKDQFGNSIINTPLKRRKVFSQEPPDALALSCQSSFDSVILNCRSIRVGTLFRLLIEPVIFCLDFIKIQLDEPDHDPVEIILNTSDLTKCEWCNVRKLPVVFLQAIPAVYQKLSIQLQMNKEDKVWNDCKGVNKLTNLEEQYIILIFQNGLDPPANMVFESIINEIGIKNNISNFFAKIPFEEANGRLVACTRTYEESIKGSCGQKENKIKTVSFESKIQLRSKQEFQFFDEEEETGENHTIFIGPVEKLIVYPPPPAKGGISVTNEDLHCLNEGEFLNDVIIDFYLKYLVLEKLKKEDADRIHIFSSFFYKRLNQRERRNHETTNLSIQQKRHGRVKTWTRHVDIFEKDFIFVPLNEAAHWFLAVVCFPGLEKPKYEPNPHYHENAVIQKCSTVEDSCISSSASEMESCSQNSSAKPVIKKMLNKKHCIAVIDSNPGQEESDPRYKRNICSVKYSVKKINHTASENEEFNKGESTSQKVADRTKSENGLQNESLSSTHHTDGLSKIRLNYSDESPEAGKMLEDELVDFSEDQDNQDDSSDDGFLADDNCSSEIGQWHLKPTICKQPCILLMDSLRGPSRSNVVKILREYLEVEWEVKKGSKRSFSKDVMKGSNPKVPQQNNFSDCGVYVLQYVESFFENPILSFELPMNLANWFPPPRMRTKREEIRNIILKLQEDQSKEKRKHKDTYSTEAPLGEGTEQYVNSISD

[6] = biological target: T3, Sentrin-specific protease 7 (Homo sapiens, UniProt Q9BQF6); assay: SENP7 protease inhibitors, SAR follow-up, biochemical, luminescence (AID 504497); assay type: functional
T3 sequence (Q9BQF6 whole entry): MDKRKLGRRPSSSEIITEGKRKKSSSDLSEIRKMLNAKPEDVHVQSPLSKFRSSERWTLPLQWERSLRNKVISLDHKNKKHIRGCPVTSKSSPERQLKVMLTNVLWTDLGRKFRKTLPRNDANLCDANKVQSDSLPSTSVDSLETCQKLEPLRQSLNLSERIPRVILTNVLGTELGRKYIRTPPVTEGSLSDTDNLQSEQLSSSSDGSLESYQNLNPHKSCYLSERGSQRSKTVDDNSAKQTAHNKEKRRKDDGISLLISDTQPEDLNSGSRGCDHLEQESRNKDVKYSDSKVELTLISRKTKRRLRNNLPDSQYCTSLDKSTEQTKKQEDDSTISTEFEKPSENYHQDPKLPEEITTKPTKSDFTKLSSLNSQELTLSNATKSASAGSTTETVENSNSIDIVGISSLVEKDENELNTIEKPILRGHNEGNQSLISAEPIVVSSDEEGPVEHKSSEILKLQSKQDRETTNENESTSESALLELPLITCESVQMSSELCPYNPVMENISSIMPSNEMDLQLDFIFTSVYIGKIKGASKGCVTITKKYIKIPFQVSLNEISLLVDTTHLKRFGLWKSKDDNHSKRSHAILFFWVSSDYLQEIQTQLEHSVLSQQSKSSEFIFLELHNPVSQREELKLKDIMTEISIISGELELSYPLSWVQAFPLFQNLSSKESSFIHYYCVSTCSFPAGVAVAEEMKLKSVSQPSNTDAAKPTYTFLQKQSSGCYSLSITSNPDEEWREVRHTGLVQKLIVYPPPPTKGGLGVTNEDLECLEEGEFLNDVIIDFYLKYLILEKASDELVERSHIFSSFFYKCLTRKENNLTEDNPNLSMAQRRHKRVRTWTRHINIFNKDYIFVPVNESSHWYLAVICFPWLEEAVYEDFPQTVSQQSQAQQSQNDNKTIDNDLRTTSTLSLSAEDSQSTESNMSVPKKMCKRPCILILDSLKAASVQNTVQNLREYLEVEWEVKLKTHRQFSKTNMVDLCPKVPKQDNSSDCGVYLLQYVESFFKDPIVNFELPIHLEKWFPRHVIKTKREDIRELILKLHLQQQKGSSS

[7] = biological target: Cytochrome P450 2C9 (Homo sapiens, UniProt P11712)
Cytochrome P450 2C9, sequence (P11712 whole entry): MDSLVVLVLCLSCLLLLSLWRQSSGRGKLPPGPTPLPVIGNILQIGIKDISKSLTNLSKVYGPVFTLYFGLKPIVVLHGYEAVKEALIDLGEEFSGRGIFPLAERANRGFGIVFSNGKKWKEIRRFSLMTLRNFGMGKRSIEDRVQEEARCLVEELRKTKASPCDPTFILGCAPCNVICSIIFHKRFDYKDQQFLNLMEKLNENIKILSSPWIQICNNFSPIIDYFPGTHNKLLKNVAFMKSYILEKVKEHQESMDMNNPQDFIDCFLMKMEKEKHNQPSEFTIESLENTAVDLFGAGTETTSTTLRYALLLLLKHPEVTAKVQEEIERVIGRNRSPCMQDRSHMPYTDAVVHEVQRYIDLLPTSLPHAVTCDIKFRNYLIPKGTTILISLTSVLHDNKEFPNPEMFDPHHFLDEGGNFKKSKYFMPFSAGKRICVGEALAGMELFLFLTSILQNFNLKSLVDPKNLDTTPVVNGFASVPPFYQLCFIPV

[8] = biological target: T3, Sentrin-specific protease 7; assay type: functional
[9] = biological target: T4, Caspase-3 (Homo sapiens, UniProt P42574); assay: SAR Analysis of small molecule inhibitors of Sentrin-specific proteases (SENPs) using a Caspase-3 Selectivity assay. [Related pubchem assays (depositor defined):AID2540, AID2599, AID434973, AID489001]; assay type: functional
T4 sequence (P42574 whole entry): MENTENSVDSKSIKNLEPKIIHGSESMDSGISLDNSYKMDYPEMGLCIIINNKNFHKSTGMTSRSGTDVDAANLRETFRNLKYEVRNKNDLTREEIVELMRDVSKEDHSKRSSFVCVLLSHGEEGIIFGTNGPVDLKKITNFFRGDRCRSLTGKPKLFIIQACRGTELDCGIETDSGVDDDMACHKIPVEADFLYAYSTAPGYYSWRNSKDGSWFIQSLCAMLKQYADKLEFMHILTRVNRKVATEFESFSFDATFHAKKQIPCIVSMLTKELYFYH

[10] = biological target: Cytochrome P450 2C19 (Homo sapiens, UniProt P33261); assay: Cytochrome panel assay with activity outcomes. Panel member name: p450-cyp2c19 Compounds with AC50 equal or less than 10 uM are considered active; assay type: functional; conditions: read-out: AC50
Cytochrome P450 2C19, sequence (P33261 whole entry): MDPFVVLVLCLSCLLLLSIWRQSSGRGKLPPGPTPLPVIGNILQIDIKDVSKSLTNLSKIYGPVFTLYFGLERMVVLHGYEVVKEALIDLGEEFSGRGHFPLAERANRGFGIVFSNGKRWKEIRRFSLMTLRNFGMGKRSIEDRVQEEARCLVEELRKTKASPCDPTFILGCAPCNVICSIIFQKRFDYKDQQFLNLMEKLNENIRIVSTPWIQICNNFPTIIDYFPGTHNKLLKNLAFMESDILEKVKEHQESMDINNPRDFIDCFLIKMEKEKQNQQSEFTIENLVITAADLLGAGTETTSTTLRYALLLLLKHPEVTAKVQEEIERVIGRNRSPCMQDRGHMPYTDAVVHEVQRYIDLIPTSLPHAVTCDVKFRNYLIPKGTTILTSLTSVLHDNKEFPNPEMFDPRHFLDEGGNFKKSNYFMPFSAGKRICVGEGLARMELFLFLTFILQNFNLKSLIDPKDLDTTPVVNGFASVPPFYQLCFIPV

[11] = biological target: T5, Sentrin-specific protease 8 (Homo sapiens, UniProt Q96LD8); assay type: functional;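 further: luminescence read-out of SENP8 inhibition, dose-response confirmation following an ultra-high-throughput screen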
T5 sequence (Q96LD8 whole entry): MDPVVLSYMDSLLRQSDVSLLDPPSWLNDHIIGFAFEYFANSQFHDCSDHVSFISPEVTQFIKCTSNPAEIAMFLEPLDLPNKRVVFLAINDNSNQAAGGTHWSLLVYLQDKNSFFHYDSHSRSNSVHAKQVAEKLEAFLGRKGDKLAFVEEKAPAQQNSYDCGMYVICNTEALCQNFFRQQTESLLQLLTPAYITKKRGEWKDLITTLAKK

[12] = biological target: T5, Sentrin-specific protease 8; assay: SENP8 protease inhibitors, SAR follow-up, biochemical, luminescence (AID 504501); assay type: functional
[13] = biological target: T4, Caspase-3; assay type: functional
[14] = biological target: Cytochrome P450 2D6 (Homo sapiens, UniProt P10635);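 further: CYP2D6 member of a cytochrome P450 panel assay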
Cytochrome P450 2D6, sequence (P10635 whole entry): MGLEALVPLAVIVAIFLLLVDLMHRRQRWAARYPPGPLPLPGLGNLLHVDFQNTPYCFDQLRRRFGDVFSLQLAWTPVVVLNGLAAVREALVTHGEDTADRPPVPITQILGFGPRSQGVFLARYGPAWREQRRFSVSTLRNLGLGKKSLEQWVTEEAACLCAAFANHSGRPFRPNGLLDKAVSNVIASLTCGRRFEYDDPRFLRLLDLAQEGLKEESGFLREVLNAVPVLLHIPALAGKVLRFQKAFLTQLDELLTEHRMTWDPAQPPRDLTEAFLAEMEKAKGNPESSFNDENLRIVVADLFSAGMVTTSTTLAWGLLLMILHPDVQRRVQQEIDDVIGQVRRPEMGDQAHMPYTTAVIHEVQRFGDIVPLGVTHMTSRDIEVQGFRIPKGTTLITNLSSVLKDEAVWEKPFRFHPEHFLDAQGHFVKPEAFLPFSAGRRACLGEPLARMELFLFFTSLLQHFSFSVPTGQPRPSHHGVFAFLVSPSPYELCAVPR

[15] = biological target: T2, Sentrin-specific protease 6; assay: SAR Analysis of small molecule inhibitors of Sentrin-specific protease 6 (SENP6) using a Luminescent assay. [Related pubchem assays (depositor defined):AID2582, AID2599]; assay type: functional
[16] = biological target: T6, Apoptotic protease-activating factor 1 (Homo sapiens, UniProt O14727); assay type: functional
T6 sequence (O14727 whole entry): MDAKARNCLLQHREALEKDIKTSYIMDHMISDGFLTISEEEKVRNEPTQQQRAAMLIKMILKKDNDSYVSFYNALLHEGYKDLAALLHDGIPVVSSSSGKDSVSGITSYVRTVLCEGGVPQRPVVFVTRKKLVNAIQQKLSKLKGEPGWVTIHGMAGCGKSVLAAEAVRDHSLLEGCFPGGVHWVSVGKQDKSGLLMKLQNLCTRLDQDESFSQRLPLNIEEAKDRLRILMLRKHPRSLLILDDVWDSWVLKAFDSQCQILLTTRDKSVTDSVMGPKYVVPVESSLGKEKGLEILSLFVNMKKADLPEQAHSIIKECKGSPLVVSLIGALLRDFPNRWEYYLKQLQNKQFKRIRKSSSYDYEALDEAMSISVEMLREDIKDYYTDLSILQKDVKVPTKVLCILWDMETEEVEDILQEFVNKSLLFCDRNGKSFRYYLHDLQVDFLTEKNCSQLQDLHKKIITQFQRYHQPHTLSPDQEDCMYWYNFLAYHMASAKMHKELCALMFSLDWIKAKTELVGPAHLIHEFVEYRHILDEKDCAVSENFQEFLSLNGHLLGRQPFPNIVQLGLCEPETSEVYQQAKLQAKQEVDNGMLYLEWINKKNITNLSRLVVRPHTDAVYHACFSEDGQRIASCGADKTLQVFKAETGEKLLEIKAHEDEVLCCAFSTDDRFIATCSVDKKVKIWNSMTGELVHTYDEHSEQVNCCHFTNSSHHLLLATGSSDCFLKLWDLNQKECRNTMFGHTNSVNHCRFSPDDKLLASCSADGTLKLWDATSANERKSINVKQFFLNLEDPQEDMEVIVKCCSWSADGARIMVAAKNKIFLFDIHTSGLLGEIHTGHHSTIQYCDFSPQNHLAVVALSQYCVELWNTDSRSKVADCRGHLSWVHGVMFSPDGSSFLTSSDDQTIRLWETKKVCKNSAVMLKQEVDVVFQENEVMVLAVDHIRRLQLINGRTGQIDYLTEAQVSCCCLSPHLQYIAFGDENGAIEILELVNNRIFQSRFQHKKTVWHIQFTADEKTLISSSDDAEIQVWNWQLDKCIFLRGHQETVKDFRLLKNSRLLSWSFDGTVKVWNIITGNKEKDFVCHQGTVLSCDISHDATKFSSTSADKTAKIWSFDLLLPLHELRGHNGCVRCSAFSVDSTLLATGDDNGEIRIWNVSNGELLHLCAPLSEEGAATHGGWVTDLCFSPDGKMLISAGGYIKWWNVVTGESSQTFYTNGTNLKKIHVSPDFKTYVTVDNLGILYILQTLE

[17] = biological target: T7, Mannose-6-phosphate isomerase (Homo sapiens, UniProt P34949); assay: inhibitors of human PMI, primary screen, biochemical, fluorescence intensity, coupled assay (AID 1209)
T7 sequence (P34949 whole entry): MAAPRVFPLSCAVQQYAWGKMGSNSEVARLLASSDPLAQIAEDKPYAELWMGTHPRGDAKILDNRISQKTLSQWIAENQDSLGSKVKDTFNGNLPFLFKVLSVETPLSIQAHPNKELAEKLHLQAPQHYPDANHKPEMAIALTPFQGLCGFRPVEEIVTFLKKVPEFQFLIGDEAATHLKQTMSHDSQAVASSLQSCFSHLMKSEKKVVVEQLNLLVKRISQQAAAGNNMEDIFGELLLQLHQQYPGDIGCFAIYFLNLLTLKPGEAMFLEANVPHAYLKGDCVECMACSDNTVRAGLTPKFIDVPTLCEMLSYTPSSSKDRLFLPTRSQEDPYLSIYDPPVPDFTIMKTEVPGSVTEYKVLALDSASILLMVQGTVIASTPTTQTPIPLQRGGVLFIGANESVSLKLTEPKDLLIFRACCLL

In the case of `N#Cc1ccc(-c2ccco2)nc1SCC(=O)c1ccc(Cl)cc1`, the IC50 [1] is reported as 10.1 µM (inactive), the CC50 [2] is reported as > 40 µM (active) and the IC50 [3] is reported as > 100 µM (active). The IC50 [4] was 16.7 µM (inactive).

With `Cc1ccc(/C=C/c2nnc(-c3cccs3)o2)cc1` the IC50 [5] was > 100 µM (inactive), the IC50 [6] was 1.7 µM (active) and the AC50 [7] was 10 µM (inconclusive). For the same compound, the IC50 [8] was > 100 µM (inactive), the IC50 [9] was 2 µM (active) and the AC50 [10] was 25.1 µM (inconclusive). The IC50 [11] was 24.3 µM (active), the IC50 [12] was 2.1 µM (active) and the IC50 [13] was > 100 µM (inactive). For the same compound, the AC50 [14] was 25.1 µM (inconclusive) and the IC50 [15] was 2 µM (active).

In the case of `O=C(N/N=C/c1ccc(-c2ccccc2[N+](=O)[O-])o1)c1cccnc1`, the IC50 [16] is reported as 39.2 µM (active) and the IC50 [17] is reported as > 50 µM (not active).
